Measured values reported in PubChem BioAssay AID330 (DTP/NCI, 2004).
Values joined by “and” are separate entries in the source; they are usually repeats but may differ in a detail not shown here. Equal values may be shown once. Toxic doses and inconclusive results are not listed. Rule for the calls: active = survival T/C of 150% or more; inactive = T/C below 125% in these data. Peptide text beside a SMILES is read from it. * marks the point of attachment. Boc = CC(C)(C)OC(=O)*; NHNH2 = NN*

Test system: P388 leukemia ip, CD2F1 mice, survival T/C
Experiment: NCI In Vivo Anticancer Drug Screen. Data for tumor model P388 Leukemia (intraperitoneal) in CD2F1 (CDF1) mice
Conditions: endpoint: median survival time, higher = longer survival
In short: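 Mice carrying the transplanted tumor received test compound or vehicle. Survival was recorded in each group, and the value is the treated-group measurement divided by that of the vehicle-treated control group.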

[1] = dose: 50.0 mg/kg/injection, schedule: Q01DX005 (ip), vehicle: saline with Tween-80
[2] = dose: 100.0 mg/kg/injection, schedule: Q01DX005 (ip), vehicle: saline with Tween-80
[3] = dose: 60.0 mg/kg/injection, schedule: Q01DX005 (ip), vehicle: Klucel (hydroxypropylcellulose) (HPC)
[4] = dose: 120.0 mg/kg/injection, schedule: Q01DX005 (ip), vehicle: Klucel (hydroxypropylcellulose) (HPC)
[5] = dose: 240.0 mg/kg/injection, schedule: Q01DX005 (ip), vehicle: Klucel (hydroxypropylcellulose) (HPC)
[6] = dose: 50.0 mg/kg/injection, schedule: Q01DX005 (ip), vehicle: Klucel (hydroxypropylcellulose) (HPC)
[7] = dose: 100.0 mg/kg/injection, schedule: Q01DX005 (ip), vehicle: Klucel (hydroxypropylcellulose) (HPC)
[8] = dose: 200.0 mg/kg/injection, schedule: Q01DX005 (ip), vehicle: Klucel (hydroxypropylcellulose) (HPC)
[9] = dose: 50.0 mg/kg/injection, schedule: Q01DX009 (ip), vehicle: Klucel (hydroxypropylcellulose) (HPC)
[10] = dose: 100.0 mg/kg/injection, schedule: Q01DX001 (ip), vehicle: saline
[11] = dose: 100.0 mg/kg/injection, schedule: Q01DX009 (ip), vehicle: Klucel (hydroxypropylcellulose) (HPC)
[12] = dose: 100.0 mg/kg/injection, schedule: Q04DX003 (ip), vehicle: saline with Tween-80
[13] = dose: 200.0 mg/kg/injection, schedule: Q01DX009 (ip), vehicle: Klucel (hydroxypropylcellulose) (HPC)
[14] = dose: 200.0 mg/kg/injection, schedule: Q04DX003 (ip), vehicle: saline with Tween-80
[15] = dose: 400.0 mg/kg/injection, schedule: Q04DX003 (ip), vehicle: saline with Tween-80

Measured: T/C

O=C1CN(c2cccc(C(F)(F)F)c2)C(=O)CN1/N=C/c1ccc[nH]1
inactive: [1] 101 % of control | [2] 100 % of control | dose: 200.0 mg/kg/injection, schedule: Q01DX005 (ip), vehicle: saline with Tween-80 99 % of control

CCCCCCCC/C=C\CCCCCCCC(=O)OCCCCCCCCCCCC
inactive: dose: 6.25 mg/kg/injection, schedule: Q01DX012 (ip), vehicle: saline with Tween-80 100 % of control | dose: 12.5 mg/kg/injection, schedule: Q01DX012 (ip), vehicle: saline with Tween-80 104 % of control | dose: 50.0 mg/kg/injection, schedule: Q01DX012 (ip), vehicle: saline with Tween-80 100 % of control | dose: 100.0 mg/kg/injection, schedule: Q01DX012 (ip), vehicle: saline with Tween-80 98 % of control | dose: 200.0 mg/kg/injection, schedule: Q01DX012 (ip), vehicle: saline with Tween-80 101 % of control | dose: 500.0 mg/kg/injection, schedule: Q01DX012 (ip), vehicle: saline with Tween-80 106 % of control | dose: 872.0 mg/kg/injection, schedule: Q01DX012 (ip), vehicle: saline with Tween-80 97 % of control

N#Cc1c[nH]n2ccnc12
inactive: [3] 101 % of control | [4] 101 % of control | [5] 105 % of control

O=P1(N2CCOCC2)OC(c2ccccc2)=CCN1c1ccccc1 (stereo not drawn)
inactive: [6] 103 % of control | [7] 103 % of control | [8] 104 % of control

CC(=O)OC1CCC2(C)C(=CCC3C2CCC2(C)C3CC3N(c4ccccc4Cl)C32C(C)=O)C1 (stereo not drawn)
inactive: dose: 25.0 mg/kg/injection, schedule: Q01DX001 (ip), vehicle: saline with Tween-80 93 % of control | dose: 50.0 mg/kg/injection, schedule: Q01DX001 (ip), vehicle: saline with Tween-80 95 % of control | dose: 100.0 mg/kg/injection, schedule: Q01DX001 (ip), vehicle: saline with Tween-80 99 % of control and 90 % of control | dose: 400.0 mg/kg/injection, schedule: Q01DX001 (ip), vehicle: saline with Tween-80 89 % of control

CNc1c(C(N)=O)nnn1Cc1ccc(OC)cc1
inactive: dose: 100.0 mg/kg/injection, schedule: Q04DX002 (ip), vehicle: Klucel (hydroxypropylcellulose) (HPC) 100 % of control | dose: 200.0 mg/kg/injection, schedule: Q04DX002 (ip), vehicle: Klucel (hydroxypropylcellulose) (HPC) 100 % of control | dose: 400.0 mg/kg/injection, schedule: Q04DX002 (ip), vehicle: Klucel (hydroxypropylcellulose) (HPC) 103 % of control

CC(C)N(c1cc(=O)nc2ccccn12)C(C)C
inactive: dose: 60.0 mg/kg/injection, schedule: Q01DX005 (ip), vehicle: saline 101 % of control | dose: 120.0 mg/kg/injection, schedule: Q01DX005 (ip), vehicle: saline 98 % of control | dose: 240.0 mg/kg/injection, schedule: Q01DX005 (ip), vehicle: saline 100 % of control

CCOC(=O)C1=C(C)O/C(=C\c2cccc(C(F)(F)F)c2)C1=O
inactive: [1] 108 % of control | [2] 109 % of control

O=C(O)C(Cc1cccs1)NC(=O)C(F)(F)F (stereo not drawn)
inactive: dose: 50.0 mg/kg/injection, schedule: Q01DX009 (ip), vehicle: saline + alcohol 99 % of control | dose: 100.0 mg/kg/injection, schedule: Q01DX009 (ip), vehicle: saline + alcohol 93 % of control | dose: 200.0 mg/kg/injection, schedule: Q01DX009 (ip), vehicle: saline + alcohol 92 % of control

O=C(NO)c1ccccc1
inactive: dose: 25.0 mg/kg/injection, schedule: Q01DX009 (ip), vehicle: Klucel (hydroxypropylcellulose) (HPC) 98 % of control | dose: 50.0 mg/kg/injection, schedule: Q01DX001 (ip), vehicle: saline 102 % of control | [9] 98 % of control | dose: 50.0 mg/kg/injection, schedule: Q01DX009 (ip), vehicle: saline with Tween-80 103 % of control | dose: 50.0 mg/kg/injection, schedule: Q04DX003 (ip), vehicle: saline with Tween-80 106 % of control | [10] 102 % of control | [11] 107 % of control | [12] 102 % of control | [13] 116 % of control | dose: 200.0 mg/kg/injection, schedule: Q01DX009 (ip), vehicle: saline with Tween-80 103 % of control | [14] 102 % of control | dose: 400.0 mg/kg/injection, schedule: Q01DX009 (ip), vehicle: Klucel (hydroxypropylcellulose) (HPC) 114 % of control | [15] 109 % of control

CCN(CC)C1CS(=O)(=O)OC2=C1CSCC2 (stereo not drawn)
inactive: [12] 102 % of control | [14] 100 % of control | [15] 95 % of control

CCCCCCCC/C=C\CCCCCCCCOC(N)=O
inactive: dose: 25.0 mg/kg/injection, schedule: Q04DX003 (ip), vehicle: other 100 % of control | dose: 50.0 mg/kg/injection, schedule: Q04DX003 (ip), vehicle: other 104 % of control | dose: 100.0 mg/kg/injection, schedule: Q04DX003 (ip), vehicle: other 104 % of control

CCC(C)C(NC(=O)C(Cc1c[nH]c2ccccc12)NC(=O)OC(C)(C)C)C(=O)NN (stereo not drawn) (Boc-Trp-Ile-NHNH2; configuration not given here)
inactive: dose: 12.5 mg/kg/injection, schedule: Q01DX009 (ip), vehicle: other 97 % of control | dose: 25.0 mg/kg/injection, schedule: Q01DX009 (ip), vehicle: other 91 % of control | dose: 50.0 mg/kg/injection, schedule: Q01DX009 (ip), vehicle: other 87 % of control | dose: 100.0 mg/kg/injection, schedule: Q01DX009 (ip), vehicle: other 94 % of control | dose: 200.0 mg/kg/injection, schedule: Q01DX009 (ip), vehicle: other 100 % of control

CC(=O)Oc1cc(C)cc2ccc(-c3ccc4cc(C)cc(OC(C)=O)c4c3OC(C)=O)c(OC(C)=O)c12
inactive: [9] 96 % of control | [11] 96 % of control | [13] 96 % of control

C/C=C(\C)C(=O)OC1C2C(C)=CC(O)C(O)C2(C)C2C3(O)OCC24C(CC(=O)OC14)C(C)C3O (stereo not drawn)
inactive: dose: 0.25 mg/kg/injection, schedule: Q01DX009 (ip), vehicle: Klucel (hydroxypropylcellulose) (HPC) 109 % of control | dose: 0.5 mg/kg/injection, schedule: Q01DX009 (ip), vehicle: Klucel (hydroxypropylcellulose) (HPC) 101 % of control | dose: 1.0 mg/kg/injection, schedule: Q01DX009 (ip), vehicle: Klucel (hydroxypropylcellulose) (HPC) 104 % of control | dose: 2.0 mg/kg/injection, schedule: Q01DX009 (ip), vehicle: Klucel (hydroxypropylcellulose) (HPC) 104 % of control

CN(Cc1ccc([N+](=O)[O-])cc1)C(=O)Nc1ccc(S(=O)(=O)F)cc1
inactive: [3] 110 % of control | [4] 92 % of control | [5] 92 % of control

C=Cc1c2ccccc2cc2ccccc12
inactive: [6] 109 % of control | [7] 106 % of control | [8] 100 % of control

CC(C)OCc1cccc2ccnc(COC(C)C)c12
inactive: [10] 102 % of control | dose: 200.0 mg/kg/injection, schedule: Q01DX001 (ip), vehicle: saline 100 % of control | dose: 400.0 mg/kg/injection, schedule: Q01DX001 (ip), vehicle: saline 95 % of control

Cc1ccc2ccc3ccc(C)nc3c2n1.O=[N+]([O-])O.O=[N+]([O-])O.[Cu]
inactive: dose: 6.25 mg/kg/injection, schedule: Q04DX002 (ip), vehicle: saline 109 % of control | dose: 12.5 mg/kg/injection, schedule: Q04DX002 (ip), vehicle: saline 113 % of control
